In ChEMBL document CHEMBL5329194, “Design, Synthesis, and Evaluation of 18F-Labeling CYP1B1 PET Tracer Based on 2-Phenylquinazolin” (Bioorg Med Chem Lett, 2023):

What was measured:
[1] = target: T1, Cytochrome P450 1B1 (Homo sapiens, UniProt Q16678); test: Inhibition of CYP1B1 (unknown origin) by EROD assay; format: ADME
T1 sequence (Q16678 whole entry): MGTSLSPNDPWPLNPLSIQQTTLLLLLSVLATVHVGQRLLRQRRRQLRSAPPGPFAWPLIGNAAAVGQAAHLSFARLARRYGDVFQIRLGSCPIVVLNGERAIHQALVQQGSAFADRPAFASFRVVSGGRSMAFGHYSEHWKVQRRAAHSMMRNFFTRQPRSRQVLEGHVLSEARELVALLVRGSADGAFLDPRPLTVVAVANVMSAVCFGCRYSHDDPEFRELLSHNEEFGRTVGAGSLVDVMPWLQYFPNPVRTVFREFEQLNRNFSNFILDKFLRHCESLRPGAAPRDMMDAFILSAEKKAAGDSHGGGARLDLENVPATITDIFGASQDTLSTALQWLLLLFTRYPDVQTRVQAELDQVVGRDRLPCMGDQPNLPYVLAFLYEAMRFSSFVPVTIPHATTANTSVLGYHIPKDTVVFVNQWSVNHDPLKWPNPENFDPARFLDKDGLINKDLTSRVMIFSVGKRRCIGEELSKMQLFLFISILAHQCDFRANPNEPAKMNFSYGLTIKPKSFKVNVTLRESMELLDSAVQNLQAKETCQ

[2] = target: T2, Cytochrome P450 1A1 (Homo sapiens, UniProt P04798); test: Inhibition of CYP1A1 (unknown origin); format: ADME
T2 sequence (P04798 whole entry): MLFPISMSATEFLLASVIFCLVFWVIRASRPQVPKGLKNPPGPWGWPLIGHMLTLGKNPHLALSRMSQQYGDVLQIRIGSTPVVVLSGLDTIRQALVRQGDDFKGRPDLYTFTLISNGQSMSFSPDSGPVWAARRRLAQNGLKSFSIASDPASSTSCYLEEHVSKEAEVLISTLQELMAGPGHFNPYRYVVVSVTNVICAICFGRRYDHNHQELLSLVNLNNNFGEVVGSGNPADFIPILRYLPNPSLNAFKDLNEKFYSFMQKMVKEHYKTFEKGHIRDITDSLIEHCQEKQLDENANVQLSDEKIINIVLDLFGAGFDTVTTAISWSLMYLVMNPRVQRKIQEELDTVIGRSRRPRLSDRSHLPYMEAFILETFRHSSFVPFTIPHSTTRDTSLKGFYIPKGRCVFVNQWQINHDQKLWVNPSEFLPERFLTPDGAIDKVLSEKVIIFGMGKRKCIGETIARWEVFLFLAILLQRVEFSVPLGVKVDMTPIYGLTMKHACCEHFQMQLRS

[3] = target: T3, Cytochrome P450 1A2 (Homo sapiens, UniProt P05177); test: Inhibition of CYP1A2 (unknown origin); format: ADME
T3 sequence (P05177 whole entry): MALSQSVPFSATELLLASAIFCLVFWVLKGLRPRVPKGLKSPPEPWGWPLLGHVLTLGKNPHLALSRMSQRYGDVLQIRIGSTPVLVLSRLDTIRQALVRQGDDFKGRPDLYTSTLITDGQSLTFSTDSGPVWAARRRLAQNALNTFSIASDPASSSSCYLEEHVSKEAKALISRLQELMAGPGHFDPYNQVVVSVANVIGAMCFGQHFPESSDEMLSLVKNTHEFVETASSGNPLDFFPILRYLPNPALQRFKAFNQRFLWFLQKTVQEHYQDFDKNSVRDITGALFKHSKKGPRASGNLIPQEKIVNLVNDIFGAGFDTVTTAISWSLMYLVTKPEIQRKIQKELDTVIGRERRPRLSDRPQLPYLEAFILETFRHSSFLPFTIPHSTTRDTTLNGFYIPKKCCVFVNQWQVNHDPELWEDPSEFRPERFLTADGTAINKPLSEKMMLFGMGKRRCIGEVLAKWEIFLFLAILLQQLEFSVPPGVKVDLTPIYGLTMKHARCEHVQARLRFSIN

[4] = system: CYP1A1 versus CYP1B1; test: Selectivity ratio of IC50 for inhibition of CYP1A1 (unknown origin) to IC50 for inhibition of CYP1B1 (unknown origin); format: ADME; details: human; read-out: Ratio IC50
[5] = system: CYP1A2 versus CYP1B1; test: Selectivity ratio of IC50 for inhibition of CYP1A2 (unknown origin) to IC50 for inhibition of CYP1B1 (unknown origin); format: ADME; details: human; read-out: Ratio IC50
[6] = Drug uptake in human MCF7 cells measured after 30 mins; format: ADME, cell-based; details: mcf7, 0.5 h
[7] = Drug uptake in human HCT-15 cells measured after 30 mins; format: ADME, cell-based; details: hct-15, 0.5 h

FCCOCCOCCOc1nc(-c2ccc(Br)cc2)nc2ccccc12
IC50 [1]: 48.2 nM | IC50 [2]: > 1000 nM | IC50 [3]: > 1000 nM | selectivity ratio [4]: > 20.7 | selectivity ratio [5]: > 20.7 | Drug uptake [6]: 21.56% | Drug uptake [7]: 25.61%
